Experimental data from patent US11098059B2, “PRMT5 inhibitors” (Merck Sharp & Dohme Corp., priority 2017, dated 2021).
Where two headings read alike, the source gives them in different places.

Columns and labels:
[1] = biological target: Full-length (FL)-PRMT5-MEP50 enzyme complex (Homo sapiens (Human), UniProt O14744); assay: PRMT5-MEP50 Enzyme Methylation Assay; assay type: biochemical; as to Enzyme Methylation Assay IC50 1: top concentration 100000 nM
Method: PRMT5-MEP50 Enzyme Methylation Assay
PRMT5/MEP50 biochemical assay is a direct measurement of the methylation activity of the enzyme complex on a short peptide substrate derived from the N-terminus of H4 histone. The methylation experiment is performed with recombinant protein. The assessment of inhibitory effect (IC50) of small molecules is measured by the effectiveness of the compounds to inhibit this reaction.
To each well of a white ProxiPlus 384 well-plate, 100 nL of compound (1% DMSO in final assay volume of 10 μL) was dispensed, followed by the addition of 8 μL of 1× assay buffer (50 mM Bicine pH 8.0, 1 mM DTT, 0.004% Tween20, 0.01% BSA) containing 0.5 nM of Full-length (FL)-PRMT5-MEP50 enzyme complex (recombinant proteins from baculovirus-transfected Sf21 cells: FL-PRMT5; MW=[…] and FL-MEP50; MW=38614). Plates were sealed and placed in a 37° C. humidified chamber for 30 minutes pre-incubation with compounds. Subsequently, each reaction was initiated by the addition of 2 μL 1× assay buffer containing 75 nM biotinylated H4R3(Me1) peptide, and 15 μM S-(5′-Adenosyl)-L-Methionine Chloride (SAM). The final reaction in each well of 10 μL consists of 0.5 nM PRMT5-MEP50, 75 nM biotinylated-peptide, and 15 μM SAM. Methylation reactions were allowed to proceed for 150 minutes in a sealed plate at 37° C. Reactions were immediately quenched by the addition of 1 μL of 10% formic acid. Plates were then frozen and shipped to SAMDI™ Tech Inc. to determine the percent conversion from […]. IC50 values were determined by 7 parameters biphasic fit model plotting the percent product conversion vs. (Log10) compound concentrations.

PRMT5 = PRMT5 (Homo sapiens (Human), UniProt O14744); assay: PRMT5 Cell Target Engagement (TE) Assay; assay type: cell-based; conditions: treated 3 days, nuclear SDMA by high content imaging, top concentration 10000 nM
Source text: PRMT5 Cell Target Engagement (TE) Assay
The PRMT5 TE assay is a biomarker assay for identifying compounds that inhibit symmetric dimethylation of arginine (SDMA) of PRMT5 substrates. This assay detects symmetrically dimethylated nuclear proteins using high content imaging technology. Detection of the expression of symmetrically dimethylated nucleo proteins is through a mixture of primary rabbit monoclonal antibodies to SDMA (CST 13222), which in turn recognized by an Alexafluor 488 dye-conjugated anti-rabbit IgG secondary antibody. The IN Cell Analyzer 2200 measures nuclear Alexafluor 488 fluorescent dye intensity that is directly related to the level of expression of symmetrically dimethylated nuclear proteins at the single cell level. Nuclear AF488 dye intensities are compared to the mean value for DMSO treated cells […] to report percent of inhibition for each compound-treated well.
Each well of a BD falcon collagen coated black/clear bottom 384-well plate was seeded with 4000 MCF-7 cells and allowed to attach for 5 hours. Media from cell plate was removed at 0.5 mm above the bottom of the plate and replaced with 30 μL of fresh media containing 1.2× compounds in 0.1% DMSO. Cells were treated for 3 days in 37° C. CO2 incubator. On day 3, cells were fixed with Cytofix, permeablized with 0.4% Triton-X-100/Cytofix, and washed with D-PBS without Ca/Mg. Cells were blocked with Licor Odessey blocking reagent for one hour at room temperature, followed by incubation with anti-SDMA (1:1000) antibody at 4° C. overnight. 1 antibody was removed, followed by three washings with DPBS without Ca/Mg and 0.05% Tween20. Hoechst (5 μg/ml), Cell Mask deep stain (1:2000) and Alexa488-conjugated goat anti-rabbit IgG (2 μg/mL) was added for 1 hour at room temperature. A final washing step (three washes) was performed before sealing plate for imaging on In Cell Analyzer 2200. Images from analyzer were uploaded to Columbus (at WP) for image analysis. IC50 values were determined by 4 parameters robust fit of percent fluorescence units vs. (Log10) compound concentrations.

[2] = read-out: Enzyme Methylation Assay IC50_1
[3] = read-out: Enzyme Methylation Assay IC50_2
[4] = MCF-7 cells, read-out: TE Assay EC50

Sequence of Full-length (FL)-PRMT5-MEP50 enzyme complex (O14744 whole entry): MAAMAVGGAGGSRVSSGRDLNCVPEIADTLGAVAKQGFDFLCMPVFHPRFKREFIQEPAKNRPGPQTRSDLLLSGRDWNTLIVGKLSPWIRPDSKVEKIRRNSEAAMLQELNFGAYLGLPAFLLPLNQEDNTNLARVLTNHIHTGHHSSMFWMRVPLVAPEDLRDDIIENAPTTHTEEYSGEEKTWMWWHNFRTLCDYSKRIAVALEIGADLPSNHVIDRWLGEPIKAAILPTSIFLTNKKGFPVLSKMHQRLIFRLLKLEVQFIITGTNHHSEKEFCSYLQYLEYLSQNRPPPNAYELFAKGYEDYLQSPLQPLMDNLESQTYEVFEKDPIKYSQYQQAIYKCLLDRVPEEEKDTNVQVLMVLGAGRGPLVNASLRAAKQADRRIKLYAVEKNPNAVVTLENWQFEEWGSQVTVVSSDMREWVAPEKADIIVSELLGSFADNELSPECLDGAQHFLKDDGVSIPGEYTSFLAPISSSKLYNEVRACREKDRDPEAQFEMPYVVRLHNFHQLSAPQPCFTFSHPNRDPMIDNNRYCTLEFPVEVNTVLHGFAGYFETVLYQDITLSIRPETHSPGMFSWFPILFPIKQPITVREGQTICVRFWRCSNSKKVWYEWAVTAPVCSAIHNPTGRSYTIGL
Sequence of Full-length (FL)-PRMT5-MEP50 enzyme complex (Q9BQA1 whole entry partner): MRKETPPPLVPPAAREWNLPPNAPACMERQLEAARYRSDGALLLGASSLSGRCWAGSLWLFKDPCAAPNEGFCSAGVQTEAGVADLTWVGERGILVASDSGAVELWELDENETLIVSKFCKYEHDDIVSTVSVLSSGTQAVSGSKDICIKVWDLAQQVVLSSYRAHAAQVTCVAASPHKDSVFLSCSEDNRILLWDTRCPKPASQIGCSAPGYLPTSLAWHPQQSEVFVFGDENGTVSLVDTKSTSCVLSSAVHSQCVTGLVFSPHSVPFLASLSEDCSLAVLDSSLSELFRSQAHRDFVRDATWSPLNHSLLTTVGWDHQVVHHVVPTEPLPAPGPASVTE
Sequence of PRMT5 (O14744 whole entry): as the sequence (O14744 whole entry) above
Sequence of PRMT5 (Q9BQA1 whole entry partner): as the sequence (Q9BQA1 whole entry partner) above

EC50 (PRMT5; [4]) [nM]	Structure (SMILES)	IC50 [1, 2] [nM]	IC50 [1, 3] [nM]	EC50 (PRMT5; TE Assay EC50, MCF-7 cells) [nM]
200	CC1(C)CN(C[C@@H](O)[C@@H]2Cc3ccccc3CN2)C(=O)c2ccc(Br)cc21 [Example 17, 6-bromo-2-((R)-2-hydroxy-2-((S)-1,2,3,4-tetrahydroisoquinolin-3-yl)ethyl)-4,4-dimethyl-3,4-dihydroisoquinolin-1(2H)-one]	0.61	368	–
213	CC[C@H]1CN(C[C@@H](O)[C@@H]2Cc3ccccc3CN2)C(=O)c2ccc(Br)cc21 (single isomer, unassigned) [Example 2]	0.21	172	–
–	CCC1CN(CC(O)[C@@H]2Cc3ccccc3CN2)C(=O)c2ccc(C(=O)N3C4CCC3COC4)cc21 (stereo partly drawn) [Example 12, 4-ethyl-2-{2-hydroxy-2-[(3S)-1,2,3,4-tetrahydroisoquinolin-3-yl]ethyl}-6-(3-oxa-8-azabicyclo[3.2.1]oct-8-ylcarbonyl)-3,4-dihydroisoquinolin-1(2H)-one]	0.63	253	29.8
–	CC[C@H]1CN(C[C@@H](O)[C@@H]2Cc3ccccc3CN2)C(=O)c2ccc(C(=O)N3C4CCC3COC4)cc21 (single isomer, unassigned) [Example 14]	0.24	31.7	2.52
22.6	CCC1CN(C[C@@H](O)[C@@H]2Cc3ccccc3CN2)C(=O)c2ccc(-c3ncnn3C3CC3)cc21 (single isomer, unassigned) [Example 10]	0.4	374	–
74.4	CC1(C)CN(C[C@@H](O)[C@@H]2Cc3ccccc3CN2)C(=O)c2ccc(N3C(=O)C4CCC3CC4)cc21 [Example 29, 2-{(2R)-2-hydroxy-2-[(3S)-1,2,3,4-tetrahydroisoquinolin-3-yl]ethyl}-4,4-dimethyl-6-(3-oxo-2-azabicyclo[2.2.2]octan-2-yl)-3,4-dihydroisoquinolin-1(2H)-one]	0.84	359	–
18.6	CC1(C)CN(C[C@@H](O)[C@@H]2Cc3ccccc3CN2)C(=O)c2ccc(C(=O)N3C4COC5C4OCC53)cc21 [Example 27, 6-(hexahydro-3,6-epiminofuro[3,2-b]furan-7-carbonyl)-2-((R)-2-hydroxy-2-((S)-1,2,3,4-tetrahydroisoquinolin-3-yl)ethyl)-4,4-dimethyl-3,4-dihydroisoquinolin-1(2H)-one]	0.35	115	–

Structure (SMILES)	EC50 (PRMT5; [4]) [nM]	IC50 [1, 2] [nM]	IC50 [1, 3] [nM]	EC50 (PRMT5; TE Assay EC50, MCF-7 cells) [nM]
CC1(C)CN(C[C@H](O)[C@@H]2Cc3ccccc3CN2)C(=O)c2ccc(C(=O)N3C4CCC3COC4)cc21 [Example 20, 6-(3-oxa-8-azabicyclo[3.2.1]octane-8-carbonyl)-2-((S)-2-hydroxy-2-((S)-1,2,3,4-tetrahydroisoquinolin-3-yl)ethyl)-4,4-dimethyl-3,4-dihydroisoquinolin-1(2H)-one]	153	12.9	4070	–
CC[C@H]1CN(C[C@@H](O)[C@@H]2Cc3ccccc3CN2)C(=O)c2ccc(C(=O)N3C4CCC3COC4)cc21 (single isomer, unassigned) [Example 15]	120	9.54	3210	–
O=C1c2ccc(C(=O)N3C4CCC3COC4)cc2CCN1CC(O)[C@@H]1Cc2ccccc2CN1 (stereo partly drawn) [Example 30, 2-{2-hydroxy-2-[(3S)-1,2,3,4-tetrahydroisoquinolin-3-yl]ethyl}-6-(3-oxa-8-azabicyclo[3.2.1]oct-8-ylcarbonyl)-3,4-dihydroisoquinolin-1(2H)-one]	869	16.6	6280	–
CO[C@H]1C[C@H]2CC[C@@H](C1)N2C(=O)c1ccc2c(c1)C(C)(C)CN(C[C@H](O)[C@@H]1Cc3ccccc3CN1)C2=O [Example 24, 2-((S)-2-hydroxy-2-((S)-1,2,3,4-tetrahydroisoquinolin-3-yl)ethyl)-6-((1R,3S,5S)-3-methoxy-8-azabicyclo[3.2.1]octane-8-carbonyl)-4,4-dimethyl-3,4-dihydroisoquinolin-1(2H)-one]	2640	11.3	7500	–
